The source of these data is PMC6553790 (PLoS Pathogens, 2019).

This test deals with P. falciparum Cam3.II lines. Put plainly: Isobologram analyses (fixed-ratio drug combinations). The format is cell-based, Plasmodium falciparum. As to the method:
Assays were performed with fixed ratios of drug combinations (1:0, 4:1, 2:1, 1:1, 1:2, 1:4, and 0:1), tested in duplicate. Combinations were prepared from 16×IC50 drug stocks and tested across a range of two-fold dilutions. Assays were conducted with asynchronous cultures exposed for 72 hr or with tightly synchronized rings or trophozoites (tested at 0–3 hr or 24–27 hr post-invasion, respectively) exposed for 3 hr. Post-pulse drug washouts were conducted as described above for in vitro determination of IC50 levels. IC50 values were derived for each compound tested alone, and fractional IC50 (FIC50) values were determined for each compound tested in combination (FIC50 = […]) and plotted for each drug combination. For each combination, the mean of the sums of FIC50 values at each combination (mean ΣFIC50) was also calculated and the results illustrated using heat maps.

Where [1] appears, read: combined with WLL, Asynchronous, 72 hr, Cam3.II K13C580Y.
Where [2] appears, read: combined with WLL, Asynchronous, 72 hr, Cam3.II K13WT.
The mark [3] stands for this setting: combined with WLW, Asynchronous, 72 hr, Cam3.II K13C580Y.
Setting [4] is: combined with WLW, Asynchronous, 72 hr, Cam3.II K13WT.
Setting [5] is: across asynchronous parasites, early rings and trophozoites.
Setting [6] is: combined with WLL, Rings, 3 hr exposure, Cam3.II K13C580Y.
The mark [7] stands for this setting: combined with WLL, Rings, 3 hr exposure, Cam3.II K13WT.
Setting [8] is: combined with WLL, Trophozoites, 3 hr exposure, Cam3.II K13C580Y.
The mark [9] stands for this setting: combined with WLL, Trophozoites, 3 hr exposure, Cam3.II K13WT.
The mark [10] stands for this setting: combined with WLW, Rings, 3 hr exposure, Cam3.II K13C580Y.
[11] abbreviates: combined with WLW, Rings, 3 hr exposure, Cam3.II K13WT.
Setting [12] is: combined with WLW, Trophozoites, 3 hr exposure, Cam3.II K13C580Y.
Where [13] appears, read: combined with WLW, Trophozoites, 3 hr exposure, Cam3.II K13WT.
Where [14] appears, read: asynchronous parasites, rings and trophozoites (S1 Fig).
[15] abbreviates: asynchronous parasites, early rings and trophozoites, Cam3.II K13WT and K13C580Y.

Entries after “also recorded” stand apart in the source; their conditions may differ.

Consider `CC(=O)N1CCN(c2ccc(CN(C(=O)/C=C/c3ccc(C(C)(C)C)cc3)[C@@H](Cc3ccccc3)C(=O)N3CCN(Cc4ccc(C#N)cc4)CC3)cc2)CC1` [ACT-451840], for which the “Interaction with WLL or WLW” value (asynchronous parasites, 72 hr) was “antagonism”. Moreover, the “Mean of the sums of FIC50 (mean ΣFIC50)” value is reported as 1.27 under setting [1], 1.34 under setting [2], 1.14 under setting [3] and 1.16 under setting [4].

Turning to `O=C(O)CCc1cccc2c1B(O)OC2` [AN3661], the “Interaction with WLL or WLW” value (asynchronous parasites, 72 hr) is listed as “antagonism”. In addition, the “Mean of the sums of FIC50 (mean ΣFIC50)” value is on record as 1.58 under setting [1], 1.69 under setting [2], 1.63 under setting [3] and 1.64 under setting [4].

In the case of `O=C1C(O)=C([C@H]2CC[C@H](c3ccc(Cl)cc3)CC2)C(=O)c2ccccc21` [ATQ, atovaquone], the “Interaction with WLL or WLW” value under setting [5] was “Additive to antagonistic; also recorded: antagonism observed in asynchronous parasites and early rings was attenuated in trophozoites”. The “Mean of the sums of FIC50 (mean ΣFIC50)” value by setting is: under setting [1], 1.22; under setting [2], 1.33; under setting [6], 1.54; under setting [7], 1.64; under setting [8], 0.99; under setting [9], 1.11. Besides, the “Mean of the sums of FIC50 (mean ΣFIC50)” value is 1.16 under setting [3]; 1.28 under setting [4]; 1.20 under setting [10]; 1.17 under setting [11]; 1.07 under setting [12]; 1.02 under setting [13].

On to `C[C@@H]1C[C@@H]([C@H](O)CC2CC(=O)NC(=O)C2)C(=O)[C@@H](C)C1` [CHX, cycloheximide], for which the “Interaction with WLL or WLW” value (asynchronous parasites, 72 hr) is “antagonism”. For the same compound, the “Mean of the sums of FIC50 (mean ΣFIC50)” value under setting [1] amounted to 1.40, the “Mean of the sums of FIC50 (mean ΣFIC50)” value under setting [2] is 1.44, the “Mean of the sums of FIC50 (mean ΣFIC50)” value under setting [3] turned out to be 1.37 and the “Mean of the sums of FIC50 (mean ΣFIC50)” value under setting [4] came to 1.29.

Turning to `CCN(CC)CCCC(C)Nc1ccnc2cc(Cl)ccc12` (stereo not drawn) [CQ, chloroquine], the “Interaction with WLL or WLW” value under setting [5] was “Additive to antagonistic; also recorded: moderate to potent antagonism”. Further, the “Mean of the sums of FIC50 (mean ΣFIC50)” value reads like this: under setting [1], 1.53; under setting [2], 1.41; under setting [6], 1.70; under setting [7], 1.69; under setting [8], 1.75; under setting [9], 1.89. Further, the “Mean of the sums of FIC50 (mean ΣFIC50)” value is, setting by setting: under setting [3], 1.36; under setting [4], 1.29; under setting [10], 1.54; under setting [11], 1.45; under setting [12], 1.41; under setting [13], 1.57.

Regarding `O=C(NCCN1CCCC1)c1cc(-c2ccc(CN3CCOCC3)cc2)nc2ccc(F)cc12` [DDD107498], the “Interaction with WLL or WLW” value (asynchronous parasites, 72 hr) was “antagonism”. In addition, the “Mean of the sums of FIC50 (mean ΣFIC50)” value by setting is: under setting [1], 1.60; under setting [2], 1.65; under setting [3], 1.44; under setting [4], 1.28.

As to `Cc1cc(Nc2ccc(S(F)(F)(F)(F)F)cc2)n2nc(C(C)(F)F)nc2n1` [DSM265], the “Interaction with WLL or WLW” value (asynchronous parasites, 72 hr) is “antagonism”. In addition, the “Mean of the sums of FIC50 (mean ΣFIC50)” value is, setting by setting: under setting [1], 1.46; under setting [2], 1.34; under setting [3], 1.30; under setting [4], 1.24.

On to `CC1(C)C(N(O)C(=O)Nc2ccc(Cl)cc2)N(c2ccc(Cl)cc2)C(=O)N1CC(=O)N/N=C/C=C/c1ccc([N+](=O)[O-])o1` (stereo not drawn) [ESI, eeyarestatin I], for which the “Interaction with WLW (isobologram)” value (asynchronous parasites and trophozoites) is on record as “additive”; the “Interaction with WLW (isobologram)” value (early ring stage) was “Mild synergy”. Further, under setting [14], the “Interaction with WLL (isobologram)” value is recorded as “largely additive”. Also, the “Mean of the sums of FIC50 (mean ΣFIC50)” value was 1.29 under setting [1]; 1.28 under setting [2]; 1.09 under setting [6]; 1.05 under setting [7]; 1.05 under setting [8]; 1.19 under setting [9]. In addition, the “Mean of the sums of FIC50 (mean ΣFIC50)” value reads like this: under setting [3], 0.97; under setting [4], 0.98; under setting [10], 0.80; under setting [11], 0.73; under setting [12], 1.08; under setting [13], 0.97.

In the case of `O=C(CC1NCCCC1O)Cn1cnc2cc(Br)c(Cl)cc2c1=O` (stereo not drawn) [HFG, halofuginone], where the note is “asynchronous parasites, 72 hr”, the “Interaction with WLL or WLW” value is on record as “antagonism”. The “Mean of the sums of FIC50 (mean ΣFIC50)” value under setting [1] is on record as 1.46, the “Mean of the sums of FIC50 (mean ΣFIC50)” value under setting [2] is on record as 1.47, the “Mean of the sums of FIC50 (mean ΣFIC50)” value under setting [3] worked out at 1.53 and the “Mean of the sums of FIC50 (mean ΣFIC50)” value under setting [4] was determined as 1.42.

As to `CCCCN(CCCC)CC(O)c1cc(Cl)cc2c1-c1ccc(Cl)cc1/C2=C/c1ccc(Cl)cc1` (stereo not drawn) [LMF, lumefantrine], the “Interaction with WLL or WLW” value by setting is: under setting [5], “Additive to antagonistic”; (asynchronous parasites, 72 hr) “mild antagonism”; (early rings and trophozoites) “largely additive”. In addition, the “Mean of the sums of FIC50 (mean ΣFIC50)” value by setting is: under setting [1], 1.24; under setting [2], 1.42; under setting [6], 1.13; under setting [7], 1.23; under setting [8], 1.24; under setting [9], 1.12. The “Mean of the sums of FIC50 (mean ΣFIC50)” value by setting is: under setting [3], 1.07; under setting [4], 1.32; under setting [10], 0.98; under setting [11], 0.95; under setting [12], 1.01; under setting [13], 1.16.

In the case of `CN(C)c1ccc2nc3ccc(=[N+](C)C)cc-3sc2c1` [MB, methylene blue], the “Interaction with WLW (isobologram)” value under setting [15] is given as “synergy”. Moreover, the “Interaction with WLL (isobologram)” value under setting [14] is recorded as “synergy with WLL was limited to the early ring stage”. The “Mean of the sums of FIC50 (mean ΣFIC50)” value reads like this: under setting [1], 1.20; under setting [2], 1.22; under setting [6], 0.84; under setting [7], 0.87; under setting [3], 0.83; under setting [4], 0.89. Moreover, the “Mean of the sums of FIC50 (mean ΣFIC50)” value amounted to 0.36 under setting [10], 0.40 under setting [11], 0.78 under setting [12] and 0.71 under setting [13].

For `C[C@H]1Cc2c([nH]c3cc(Cl)c(F)cc23)[C@@]2(N1)C(=O)Nc1ccc(Cl)cc12` [NITD609], the “Interaction with WLL or WLW” value (asynchronous parasites, 72 hr) is on record as “antagonism”. The “Mean of the sums of FIC50 (mean ΣFIC50)” value turned out to be 1.67 under setting [1], 1.58 under setting [2], 1.44 under setting [3] and 1.39 under setting [4].

Turning to `c1cc([C@H]2CC[C@]3(CC2)OO[C@]2(O3)C3CC4CC(C3)CC2C4)ccc1OCCN1CCOCC1` [OZ439], under setting [15], the “Interaction with WLW (isobologram)” value is listed as “synergy”. Moreover, the “Mean of the sums of FIC50 (mean ΣFIC50)” value reads like this: under setting [1], 1.10; under setting [2], 1.21; under setting [6], 0.79; under setting [7], 0.65; under setting [8], 0.67; under setting [9], 0.64. Also, the “Mean of the sums of FIC50 (mean ΣFIC50)” value by setting is: under setting [3], 0.76; under setting [4], 0.85; under setting [10], 0.40; under setting [11], 0.35; under setting [12], 0.51; under setting [13], 0.48. For the same compound, the “Interaction with WLL (isobologram)” value (early rings and trophozoites) is recorded as “Synergy”.
